Target: VapBC26 protein complex (Mycobacterium tuberculosis, UniProt O53778)
Sequence (O53778 whole entry, one chain of several): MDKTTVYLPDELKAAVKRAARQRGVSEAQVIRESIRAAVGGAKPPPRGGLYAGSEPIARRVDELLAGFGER

Sequence	concentration of VapBC26 from which the results of RFU were similar [µM]	inhibition of VapBC26 toxin-antitoxin complex formation (binding inhibitor, seen as increased ribonuclease activity)	ribonuclease activity of VapBC26 compared with addition of SEQ. ID. NO: 11 and SEQ. ID. NO: 13 peptides
DAELAVLRELAG [mimetic peptide for VapC26 α4]	≥ 10	acted as a VapBC26 binding inhibitor	more increased
PYVVAELDYLVATRVG [mimetic peptide for VapC26 α3]	–	acted as a VapBC26 binding inhibitor	–
YLVATRVGVDAELAV	–	acted as a VapBC26 binding inhibitor	–

Reference: patent US11795199B2, “Peptide targeting Mycobacterium tuberculosis toxin-antitoxin system and use thereof” (Seoul National University R&DB Foundation, priority 2017, dated 2023)
